In patent US20070154996A1, “Method for transferring a glucosyl residue” (priority 2004, published 2007):

Experiments:
trehalose phosphorylase [1] = biological target: T1, trehalose phosphorylase (Thermoanaerobacter brockii, UniProt Q8L164); experiment: Transglucosylation to polyalcohols by trehalose phosphorylase (GC analysis); assay type: biochemical, Thermoanaerobium brockii; parameters: key to Transfer of a glucosyl residue (Transglucosylation): +++: the area of 60% or higher; ++: 30% or higher but less than 60%; +: 0% or higher but less than 30%; −: Transglucosylation was not detected; settings: 1% (w/v) polyalcohol as acceptor, 1.4% (w/v) β-G1P, pH 6.0, 50° C., 24 hours; for Transfer of a glucosyl residue (Transglucosylation): one unit/ml enzyme, peak area of transferred product to total peak area
T1 construct: cells collected from the culture were disrupted by ultrasonication and then, the supernatant was collected; made in house; host or cells: Thermoanaerobium brockii ATCC 35047 (natural producer, not recombinant); purified by DEAE, butyl and gel filtration chromatography
T1 sequence (Q8L164 1-774): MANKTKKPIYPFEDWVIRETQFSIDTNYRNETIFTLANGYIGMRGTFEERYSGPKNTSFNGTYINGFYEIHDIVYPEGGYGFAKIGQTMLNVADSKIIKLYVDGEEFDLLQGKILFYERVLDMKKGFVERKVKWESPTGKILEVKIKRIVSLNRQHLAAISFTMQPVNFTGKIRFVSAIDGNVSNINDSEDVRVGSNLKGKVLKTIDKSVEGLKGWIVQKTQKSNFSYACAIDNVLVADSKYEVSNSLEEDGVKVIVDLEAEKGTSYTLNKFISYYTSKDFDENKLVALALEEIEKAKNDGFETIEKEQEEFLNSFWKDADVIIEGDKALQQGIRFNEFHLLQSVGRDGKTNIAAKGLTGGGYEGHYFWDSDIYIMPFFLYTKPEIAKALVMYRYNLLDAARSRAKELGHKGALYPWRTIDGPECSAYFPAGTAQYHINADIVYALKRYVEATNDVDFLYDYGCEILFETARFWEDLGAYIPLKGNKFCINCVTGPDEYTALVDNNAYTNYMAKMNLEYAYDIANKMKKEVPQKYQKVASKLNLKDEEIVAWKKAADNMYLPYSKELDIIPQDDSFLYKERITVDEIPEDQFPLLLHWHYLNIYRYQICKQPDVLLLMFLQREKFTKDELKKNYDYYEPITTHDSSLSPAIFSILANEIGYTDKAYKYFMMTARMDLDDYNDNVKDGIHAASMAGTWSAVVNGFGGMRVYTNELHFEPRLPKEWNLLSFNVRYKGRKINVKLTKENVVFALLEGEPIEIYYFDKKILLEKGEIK
Protocol: (§1) An aqueous solution containing 1% (w/v) of either of polyalcohols (all reagent grade), shown in Table 1 below, 1.4% (w/v) of a reagent grade β-G1P, one unit/ml of trehalose phosphorylase obtained in Example 1-1, and 50 mM acetate buffer (pH 6.0) was prepared and followed by the enzyme reaction while keeping the solution at 50° C. for 24 hours. After the reaction, a portion of each reaction mixture was withdrawn, dried, and dissolved in pyridine for gas chromatography analysis (hereinafter, simply abbreviated as “GC”). In GC analysis, a stainless steel column (internal diameter 3 mm×length 2 m) packed with 2% Silicon OV-17/Chromosorb W”, commercialized by GL Science, Tokyo, Japan) was used. Nitrogen gas was used as carrier gas and the flow rate was set to 40 ml/min. A column oven was controlled to rise a column temperature at 160° C. to 320° C. in a rate of 7.5° C./min after the injection of samples. A hydrogen-flame ion detector was used for the detection. An aqueous solution with the same composition except for trehalose phosphorylase was prepared, kept with the same condition described above, and analyzed by GC by the same condition to confirm the chromatogram of non-reacted polyalcohol and β-G1P. Transfer of a glucosyl residue to each polyalcohol was judged by detecting new peak(s) in the chromatogram of the reaction mixture. The amount of glucosyl-transferred polyalcohol formed by the reaction was estimated based on a peak area of the glucosyl-transferred polyalcohol to the total peak area including that of non-reacted (residual) polyalcohol, and classified into three groups of the area of 60% or higher, “+++”; 30% or higher but less than 60%, “++”; and 0% or higher but less than 30%, “+”.

trehalose phosphorylase [2] = biological target: T1, trehalose phosphorylase; experiment: Transglucosylation to glucuronic acid and C-6DGs by trehalose phosphorylase (GC analysis); assay type: biochemical, Thermoanaerobium brockii; settings: 1% (w/v) glucuronic acid or C-6DG as acceptor, 1.4% (w/v) β-G1P, one unit/ml enzyme, pH 6.0, 50° C., 24 hours; peak area of transferred product to total peak area
Protocol: as §1
An aqueous solution containing 1% (w/v) of any one of glucuronic acid or C-6DGs (all reagent grade), shown in Table 2 below, 1.4% (w/v) of a reagent grade β-G1P, one unit/ml of trehalose phosphorylase obtained in Example 1-1, and 50 mM acetate buffer (pH 6.0) was prepared and followed by the enzyme reaction while keeping the solution at 50° C. for 24 hours. After the reaction, each reaction mixture was analyzed by GC described in Example 1-2. In the same manner as described in Example 1-2, the amount of a glucosyl-transferred product formed by the reaction was estimated based on a peak area of the glucosyl-transferred product to the total peak area including that of non-reacted (remaining) glucuronic acid or C-6DGs, and classified into three groups of the area of 60% or higher, “+++”; 30% or higher but less than 60%, “++”; and 0% or higher but less than 30%, “+”.

| Compound | Transfer of a glucosyl residue (Transglucosylation) (trehalose phosphorylase [1]) | Transglucosylation to the polyalcohol, stated in words (trehalose phosphorylase [1]) | Transfer of a glucosyl residue (Transglucosylation) (trehalose phosphorylase [2]) |
| --- | --- | --- | --- |
| OC[C@@H](O)[C@@H](O)[C@@H](O)CO [Ribitol] | + (0% or higher but less than 30%) | transferred a glucosyl residue | – |
| OCC(O)CO [Glycerol] | + (0% or higher but less than 30%) | transferred a glucosyl residue | – |
| OC[C@H]1O[C@H](OCC2O[C@@H](O)[C@H](O)[C@@H](O)[C@@H]2O)[C@H](O)[C@@H](O)[C@H]1O (stereo partly shown) [Melibiose] | – | – | +++ (the area of 60% or higher) |
| O=C[C@H](O)[C@@H](O)[C@H](O)[C@H](O)C(=O)O [Glucuronic acid] | – | – | + (0% or higher but less than 30%) |
| OC[C@H]1O[C@H](OC[C@H]2O[C@H](OC[C@H]3OC(O)[C@H](O)[C@@H](O)[C@@H]3O)[C@H](O)[C@@H](O)[C@@H]2O)[C@H](O)[C@@H](O)[C@@H]1O (stereo partly shown) [Isomaltotriose] | – | – | +++ (the area of 60% or higher) |
| Gentiobiose | – | – | +++ (the area of 60% or higher) |
| O[C@H]1[C@H](O)[C@@H](O)[C@H](O)[C@@H](O)[C@H]1O [myo-Inositol] | ++ (30% or higher but less than 60%) | transferred a glucosyl residue | – |
| OC[C@@H](O)[C@@H](O)CO [Erythritol] | + (0% or higher but less than 30%) | transferred a glucosyl residue | – |
| OC[C@@H](O)[C@@H](O)[C@H](O)[C@@H](O)CO [Sorbitol] | −* | no transglucosylation | – |
| OC[C@H]1O[C@H](OC[C@H]2OC(O)[C@H](O)[C@@H](O)[C@@H]2O)[C@H](O)[C@@H](O)[C@@H]1O (stereo partly shown) [Isomaltose] | – | – | +++ (the area of 60% or higher) |
| OC[C@H]1O[C@H](O[C@H]2[C@H](O)[C@@H](O)[C@@H](OC[C@H]3OC(O)[C@H](O)[C@@H](O)[C@@H]3O)O[C@@H]2CO)[C@H](O)[C@@H](O)[C@@H]1O (stereo partly shown) [Isopanose] | – | – | +++ (the area of 60% or higher) |
